From the supplement of paper PMC4862054

Legend:
Conditions in all cases: incubation time: 72 h
MDA-MB-231 [1] = assay: normalised response (% of control), CellTox Green; higher = less cell death (100 = DMSO, 0 = benzethonium chloride kill control)
Procedure, shortened: (§1)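 Breast cancer cell lines, seeded at 20 µl suspension per well, were incubated for 72 h in 384-well plates containing compound at 5 concentrations. These concentrations rose in 10-fold steps over a 10,000-fold range set for each compound. CellTox Green fluorescence (485/520 nm) was read, then CellTiter-Glo luminescence after 10 min at room temperature, and each plate was normalised to 0.1 % DMSO (100) and a positive kill control (0). Values are normalised signals, each at one concentration.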

HDQ-P1 [2] = assay: as above
Procedure, shortened: as §1

CAL-120 [3] = assay: as above
Procedure, shortened: as §1

MFM-223 [4] = assay: as above
Procedure, shortened: as §1

HCC1937 [5] = assay: as above
Procedure, shortened: as §1

DU-4475 [6] = assay: as above
Procedure, shortened: as §1

MCF-10A [7] = assay: as above
Procedure, shortened: as §1

BT-474 [8] = assay: as above
Procedure, shortened: as §1

CAL-148 [9] = assay: as above
Procedure, shortened: as §1

CAL-51 [10] = assay: as above
Procedure, shortened: as §1

HCC1599 [11] = assay: as above
Procedure, shortened: as §1

CAL-85-1 [12] = assay: as above
Procedure, shortened: as §1

MDA-MB-436 [13] = assay: as above
Procedure, shortened: as §1

MDA-MB-468 [14] = assay: as above
Procedure, shortened: as §1

Hs578T [15] = assay: as above
Procedure, shortened: as §1

HCC1143 [16] = assay: as above
Procedure, shortened: as §1

MDA-MB-453 [17] = assay: as above
Procedure, shortened: as §1

BT-549 [18] = assay: as above
Procedure, shortened: as §1

MDA-MB-231 [19] = assay: normalised response (% of control), CellTiter-Glo; higher = more viable cells (100 = DMSO, 0 = benzethonium chloride kill control)
Procedure, shortened: as §1

HDQ-P1 [20] = assay: as above
Procedure, shortened: as §1

CAL-120 [21] = assay: as above
Procedure, shortened: as §1

MFM-223 [22] = assay: as above
Procedure, shortened: as §1

HCC1937 [23] = assay: as above
Procedure, shortened: as §1

DU-4475 [24] = assay: as above
Procedure, shortened: as §1

MCF-10A [25] = assay: as above
Procedure, shortened: as §1

BT-474 [26] = assay: as above
Procedure, shortened: as §1

CAL-148 [27] = assay: as above
Procedure, shortened: as §1

CAL-51 [28] = assay: as above
Procedure, shortened: as §1

HCC1599 [29] = assay: as above
Procedure, shortened: as §1

SK-BR-3 = assay: as above
Procedure, shortened: as §1

CAL-85-1 [30] = assay: as above
Procedure, shortened: as §1

MDA-MB-436 [31] = assay: as above
Procedure, shortened: as §1

MDA-MB-468 [32] = assay: as above
Procedure, shortened: as §1

Hs578T [33] = assay: as above
Procedure, shortened: as §1

HCC1143 [34] = assay: as above
Procedure, shortened: as §1

MDA-MB-453 [35] = assay: as above
Procedure, shortened: as §1

BT-549 [36] = assay: as above
Procedure, shortened: as §1

SMILES | normalised response (MDA-MB-231 [1]) | normalised response (HDQ-P1 [2]) | normalised response (CAL-120 [3]) | normalised response (MFM-223 [4]) | normalised response (HCC1937 [5]) | normalised response (DU-4475 [6]) | normalised response (MCF-10A [7]) | normalised response (BT-474 [8]) | normalised response (CAL-148 [9]) | normalised response (CAL-51 [10]) | normalised response (HCC1599 [11]) | normalised response (CAL-85-1 [12]) | normalised response (MDA-MB-436 [13]) | normalised response (MDA-MB-468 [14]) | normalised response (Hs578T [15]) | normalised response (HCC1143 [16]) | normalised response (MDA-MB-453 [17]) | normalised response (BT-549 [18]) | normalised response (MDA-MB-231 [19]) | normalised response (HDQ-P1 [20]) | normalised response (CAL-120 [21]) | normalised response (MFM-223 [22]) | normalised response (HCC1937 [23]) | normalised response (DU-4475 [24]) | normalised response (MCF-10A [25]) | normalised response (BT-474 [26]) | normalised response (CAL-148 [27]) | normalised response (CAL-51 [28]) | normalised response (HCC1599 [29]) | normalised response (SK-BR-3) | normalised response (CAL-85-1 [30]) | normalised response (MDA-MB-436 [31]) | normalised response (MDA-MB-468 [32]) | normalised response (Hs578T [33]) | normalised response (HCC1143 [34]) | normalised response (MDA-MB-453 [35]) | normalised response (BT-549 [36])
O=C(Nc1cccnc1)N1CCC(Cc2cccc(Oc3ccc(C(F)(F)F)cn3)c2)CC1 [PF-3845] (100 nM) | 121% | 105% | 104% | 102% | 110% | 107% | 107% | 104% | 103% | 110% | 113% | 97.5% | 107% | 107% | 87.9% | 121% | 104% | 99.9% | 115% | 96.7% | 102% | 110% | 103% | 102% | 112% | 103% | 113% | 106% | 85% | 112% | 104% | 103% | 107% | 103% | 107% | 113% | 104%
C=C1C[C@@H]2[C@H](CC[C@]3(C)C(=O)CC[C@@H]23)[C@@]2(C)C=CC(=O)C=C12 [Exemestane] (100 nM) | 117% | 94.5% | 102% | 107% | 56.9% | 109% | 109% | 104% | 89% | 116% | 112% | 101% | 109% | 50% | 86.8% | 99.6% | 108% | 92.8% | 107% | 102% | 106% | 106% | 94.8% | 106% | 110% | 98.6% | 109% | 111% | 104% | 106% | 103% | 103% | 101% | 104% | 104% | 106% | 101%
N#Cc1ccc(COC[C@H]2O[C@@H](n3c(NCc4ccc(Cl)c(Cl)c4)nc4c(N)ncnc43)[C@H](O)[C@@H]2O)cc1 (100 nM) | 86.9% | 85.9% | 99.7% | 108% | 60.8% | 106% | 97.2% | 100% | 104% | 114% | 115% | 101% | 96% | 130% | 114% | 108% | 110% | 99.3% | 111% | 101% | 108% | 110% | 95.3% | 103% | 102% | 98.6% | 104% | 97.2% | 98.3% | 104% | 104% | 110% | 100% | 95.2% | 103% | 95.7% | 103%
CC(C)C[C@@H](C(=O)N[C@H](C(=O)OC1CCCC1)c1ccccc1)[C@H](O)C(=O)NO [Tosedostat] (100 nM) | 30.6% | 76.4% | 78.6% | 84% | 91% | 102% | 76% | 102% | 81.6% | 53% | 104% | 62.7% | 68.7% | -23.4% | 81.3% | 86.2% | 102% | 72.1% | 70.2% | 90.3% | 79.6% | 90.7% | 77.5% | 91.8% | 101% | 59.1% | 94.2% | 77.9% | 85.1% | 82.8% | 74.4% | 89% | 60.2% | 91.2% | 83.5% | 64.5% | 70%
Cc1cc(Nc2cc(CN3CCOCC3)c3nc(C)c(Cc4ccc(Cl)cc4F)n3n2)n[nH]1 [Gandotinib] (100 nM) | 103% | 109% | 89% | 105% | 102% | 99.2% | 84.8% | 100% | 103% | 98.9% | 112% | 95% | 100% | 119% | 72% | 108% | 102% | 90% | 98.8% | 110% | 96.1% | 93.4% | 104% | 101% | 105% | 99.9% | 105% | 94.3% | 85.9% | 95.6% | 102% | 105% | 97.9% | 96.3% | 109% | 104% | 94.4%
Cc1[nH]c2ccccc2c1CCNCc1ccc(/C=C/C(=O)NO)cc1 [Panobinostat] (10 nM) | 86.3% | 102% | 99.7% | 94.9% | 99.2% | 95.4% | 110% | 75.8% | 83.1% | 99.8% | 96.4% | 89.9% | 82.3% | 70.6% | 106% | 76.1% | 81.9% | 106% | 88.4% | 93.3% | 85.3% | 90.8% | 81.5% | 84% | 99.6% | 94.3% | 83.1% | 73.7% | 94.8% | 65.8% | 77.1% | 83.5% | 84.6% | 88.1% | 88.5% | 50.6% | 99.7%
c1ccc2c(CCNc3ccc(Nc4ccncc4)cc3)c[nH]c2c1 [Serdemetan] (100 nM) | 93.5% | 51.9% | 96.9% | 93.3% | 98.8% | 100% | 88% | 100% | 96.1% | 91.4% | 93.7% | 103% | 88.8% | 83.8% | 99.5% | 104% | 103% | 103% | 98% | 105% | 98.2% | 99.9% | 92% | 101% | 95.2% | 90.6% | 91.8% | 84.5% | 122% | 98.3% | 103% | 92% | 95.1% | 93.2% | 99.2% | 106% | 101%
CNC(=O)c1cc(Oc2ccc(NC(=O)Nc3ccc(Cl)c(C(F)(F)F)c3)c(F)c2)ccn1 [Regorafenib] (100 nM) | 74.6% | 101% | 99.8% | 88.1% | 99.6% | 103% | 98.1% | 98.9% | 101% | 105% | 108% | 108% | 90.9% | 135% | 99.4% | 87.8% | 103% | 109% | 101% | 98.8% | 98.1% | 102% | 100% | 100% | 105% | 99% | 112% | 97.5% | 91.2% | 105% | 99.8% | 106% | 94.3% | 108% | 100% | 105% | 103%
